Measurements published in patent US12552770B2, “Compounds for treating respiratory disease” (TMEM16A Limited, priority 2020, dated 2026).

Molecular target: T1, human TMEM16A (TMEM16Aabc variant) (Homo sapiens, UniProt Q5XXA6, DEL476-501)
T1 sequence (Q5XXA6 with tags, fused parts or gaps isoform Q5XXA6-5 DEL539-564): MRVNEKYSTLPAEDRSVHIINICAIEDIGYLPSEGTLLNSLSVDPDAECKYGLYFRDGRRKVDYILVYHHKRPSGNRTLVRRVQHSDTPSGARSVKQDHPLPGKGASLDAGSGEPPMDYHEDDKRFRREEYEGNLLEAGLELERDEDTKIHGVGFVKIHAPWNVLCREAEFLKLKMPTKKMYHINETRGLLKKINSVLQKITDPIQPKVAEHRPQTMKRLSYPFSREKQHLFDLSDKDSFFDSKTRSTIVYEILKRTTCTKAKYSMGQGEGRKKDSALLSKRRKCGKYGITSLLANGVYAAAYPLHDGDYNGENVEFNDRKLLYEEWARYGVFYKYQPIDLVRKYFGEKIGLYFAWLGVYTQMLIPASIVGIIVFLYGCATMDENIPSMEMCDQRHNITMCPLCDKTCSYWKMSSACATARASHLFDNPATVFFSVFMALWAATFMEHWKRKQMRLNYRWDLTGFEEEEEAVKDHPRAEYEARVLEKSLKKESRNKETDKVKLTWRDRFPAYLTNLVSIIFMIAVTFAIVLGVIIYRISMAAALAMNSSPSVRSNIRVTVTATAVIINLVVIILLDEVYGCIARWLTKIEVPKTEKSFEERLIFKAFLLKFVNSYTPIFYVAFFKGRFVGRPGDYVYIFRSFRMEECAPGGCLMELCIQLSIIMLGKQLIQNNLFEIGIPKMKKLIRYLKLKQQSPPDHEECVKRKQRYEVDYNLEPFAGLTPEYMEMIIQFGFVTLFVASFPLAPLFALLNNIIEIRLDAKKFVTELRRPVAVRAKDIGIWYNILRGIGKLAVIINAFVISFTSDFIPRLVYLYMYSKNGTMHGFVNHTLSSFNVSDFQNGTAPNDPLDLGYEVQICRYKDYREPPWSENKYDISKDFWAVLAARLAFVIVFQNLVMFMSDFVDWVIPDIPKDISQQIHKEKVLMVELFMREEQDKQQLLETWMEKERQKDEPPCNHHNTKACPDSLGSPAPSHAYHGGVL
Experiment: Automated whole-cell patch clamp (Qpatch) TMEM16A potentiator assay in recombinant cells
Assay type: cell-based
Details: FRT cells stably expressing human TMEM16A, intracellular calcium at EC20; for % Potentiation @ 3.33 μM Avg: 3.33 μM solution of test compound, percentage increase of baseline TMEM16A current, peak current at +70 mV; for EC50: calculated from cumulative concentration response curve, whole-cell patch clamp
Method: Automated Whole-Cell Patch Clamp Assay to Detect TMEM16A Activity in Recombinant Cells
Cell Culture and Preparation
Fisher rat thyroid (FRT) cells stably expressing human TMEM16A (TMEM16Aabc variant; Dr Luis Galietta, Insituto Giannina, Italy) were cultured in T-75 flasks in Hams F-12 media with Coon's modification (Sigma) supplemented with 10% (v/v) foetal bovine serum, penicillin-streptomycin (10,000 U/mL/10000 μg/mL), G-418 (750 μg/mL), L-glutamine (2 mM) and sodium bicarbonate solution (7.5% v/v). At ˜90% confluence cells were harvested for experiments by detachment with a 2:1 (v/v) mixture of Detachin (BMS Biotechnology) and 0.25% (w/v) trypsin-EDTA. Cells were diluted to a density of 3.5-4.5×10^6 cells/mL with media consisting of CHO-S-SFM II (Sigma), 25 mM HEPES (Sigma) and Soy bean trypsin inhibitor (Sigma).
Whole-Cell Patch Clamp Recording
FRT-TMEM16A cells were whole-cell patch clamped using an automated planar patch clamp system (Qpatch, Sophion). Briefly, once high resistance (GOhm) seals were established between the cells and the planar recording array the patch was ruptured using suction pulses to establish the whole-cell recording configuration of the patch clamp technique. The assay employed the following solutions (all reagents Sigma):
Intracellular solution (mM): N-methyl-D-glucamine 130, CaCl2 18.2, MgCl2 1, HEPES 10, EGTA 10, BAPTA 20, Mg-ATP 2, pH 7.25, 325 mOsm with sucrose.
Extracellular solution (mM): N-methyl-D-glucamine 130, CaCl2 2, MgCl2 1, HEPES 10, pH 7.3, 320 mOsm with sucrose.
The intracellular solution buffers intracellular calcium at levels required to give ˜20% activation of the maximal TMEM16A mediated current (EC20 for calcium ions). Cells were voltage clamped at a holding potential of −70 mV and a combined voltage step (to +70 mV)/ramp (−90 my to +90 mV) was applied at 0.05 Hz. After a period of current stabilisation test compounds, solubilised in 100% (v/v) DMSO and subsequently diluted into extracellular solution, were applied to generate a cumulative concentration response curve. Each concentration of test compound was incubated for 5 minutes before addition of the next concentration. After the final concentration was tested a supramaximal concentration of either a known active positive modulator or the TMEM16A inhibitor, CaCCinhA01 (Del La Fuente et al, 2008) was added to define the upper and lower limits of the assay.
Compound activity was quantified by measuring the increase in current upon compound addition and expressing this as a percentage increase of baseline TMEM16A current level. Percentage increases in current were determined for each concentration and the data plotted as a function of concentration using either the Qpatch software or Graphpad Prism v6.05 providing the concentration which gave 50% of its maximal effect (EC50) and maximum efficacy (percentage of baseline increase).
In FIG. 1, IBL equals baseline current, I[#1] equals the peak current during test compound concentration 1 incubation period and so on.
Peak TMEM16A current at +70 mV was plotted as a function of time over the assay period. Baseline current (IBL) was measured after a period of stabilisation. The increase in current for each compound addition was determined by taking the peak current during the incubation period and subtracting the current from the previous recording period and then expressing this as a percentage of the baseline current. For test compound concentration 1 in FIG. 1 this is:
For each additional concentration tested the increase in current was determined by subtracting the current from the previous incubation period and normalising the baseline value—for test concentration 2 in FIG. 1 this is:
The values for each test concentration were plotted as a cumulative function of concentration e.g. for test concentration two this would be the sum of the peak changes measured during concentration one plus concentration two.

Row | % Potentiation @ 3.33 μM Avg | EC50 | SMILES
1 | 82% | 0.61 µM | CC1(c2nc3ccc(C(=O)NCC4CCCCCC4)cc3[nH]2)CCC1 [Example 28, N-(Cycloheptylmethyl)-2-(1-methylcyclobutyl)-3H-benzimidazole-5-carboxamide]
2 | 183% | 0.496 µM | CC(C)(CO)c1cc(F)c(Cc2nc3cc(C(=O)NCC4(C(F)(F)F)CC4)ccc3[nH]2)cc1O [Example 29, 2-[[2-Fluoro-5-hydroxy-4-(2-hydroxy-1,1-dimethyl-ethyl)phenyl]methyl]-N-[[1-(trifluoromethyl)cyclopropyl]methyl]-1H-benzimidazole-5-carboxamide]
3 | 66% | – | CC(C)(CO)c1cc(F)c(CNC(=O)c2ccc3[nH]c(C4(C(F)(F)F)CC4)nc3c2)cc1O [Example 30, N-[[2-Fluoro-5-hydroxy-4-(2-hydroxy-1,1-dimethyl-ethyl)phenyl]methyl]-2-[1-(trifluoromethyl)cyclopropyl]-1H-benzimidazole-5-carboxamide]
4 | 158% | – | CC(C)(O)c1cc(F)c(Cc2nc3cc(C(=O)NCCC(F)(F)F)ccc3[nH]2)cc1O [Example 31, 2-[[2-Fluoro-5-hydroxy-4-(1-hydroxy-1-methyl-ethyl)phenyl]methyl]-N-(3,3,3-trifluoropropyl)-1H-benzimidazole-5-carboxamide]
5 | 108% | – | CC(C)(O)c1cc(F)c(Cc2nc3cc(C(=O)NC4(C(F)(F)F)CC4)ccc3[nH]2)cc1O [Example 31.1, 2-[[2-Fluoro-5-hydroxy-4-(1-hydroxy-1-methyl-ethyl)phenyl]methyl]-N-[1-(trifluoromethyl)cyclopropyl]-1H-benzimidazole-5-carboxamide]
6 | 56.6% | 0.227 µM | CC(C)(CO)c1cc(F)cc(Cc2nc3cc(C(=O)NCC4(C(F)(F)F)CC4)ccc3[nH]2)c1O [Example 32, 2-[[5-Fluoro-2-hydroxy-3-(2-hydroxy-1,1-dimethyl-ethyl)phenyl]methyl]-N-[[1-(trifluoromethyl)cyclopropyl]methyl]-1H-benzimidazole-5-carboxamide]
